The source of these data is paper PMC5854708, “Grass Carp Prolactin Gene: Structural Characterization and Signal Transduction for PACAP-induced Prolactin Promoter Activity” (Scientific Reports, 2018).

The test system of assay [1] is grass carp PRL promoter deletion/mutation/truncation constructs in αT3-1 cells. Briefly: Deletion, mutagenesis and truncation analysis of PRL promoter activity, dual-luciferase, αT3-1 cells. In kind it is cell-based, grass carp (promoter); rat (αT3-1 cells, as printed). The note with it: PACAP 10 nM, 24 hrs, n = 4. Here is the method:
To test the functionality of the grass carp PRL promoter, a series of deletion constructs were prepared by subcloning decreasing lengths of 5′ promoter sequence of PRL gene into the luciferase-expressing reporter pGL3.Basic. […] In this study, the upstream promoter of the carp PRL gene, including pPRL(−1156), pPRL(−914), pPRL(−670), pPRL(−448) and pPRL(−306), acted as strong promoters in αT3-1 cells. […] Subsequently, mutagenesis and truncation analysis were performed to investigate the role of transcription sites in PRL promoter activity.
Figure 3 Deletion, mutagenesis and truncation analysis of PRL promoter activity in αT3-1 cells. (A) Deletion analysis of the oPACAP38-induced PRL promoter activity. […] TEXT PRINTED IN THE PICTURE: (A) oPACAP38: pPRL(-1156).LUC: X 4.80 ± 0.15 *; pPRL(-914).LUC: X 4.51 ± 0.26 *; pPRL(-670).LUC: X 3.85 ± 0.17 *; pPRL(-448).LUC: X 3.79 ± 22 *; pPRL(-306).LUC: X 3.83 ± 0.12 *; pPRL(-166).LUC: X 3.26 ± 0.20 *; pPRL(-124).LUC: X 3.57 ± 0.19 *; pPRL(-57).LUC: X 2.09 ± 0.12 * DOUBTS OF THE COPYIST ABOUT THIS PICTURE: oPACAP38, pPRL(-448).LUC: the error reads '± 22' with no decimal point visible; '0.' may be missing or hidden / oPACAP38, pPRL(-306).LUC: 3.83 or 3.63 (small rotated print crossed by the dotted frame line) / The fold values (X ...) are printed over the oPACAP38 bars, one per promoter construct. […]

Assay [2] concerns MAPK in SH-SY5Y neuroblastoma cells. The note with it: human SH-SY5Y neuroblastoma cells; cited from earlier work. From the text:
Given that PACAP has been reported to activate MAPK (e.g., in human SH-SY5Y neuroblastoma cells)[24], and PI3K-dependent cascades (e.g., in human neutrophils)[25], the functional role of MAPK and PI3K in PACAP-induced grass carp promoter activity were also examined. […] However, parallel treatment with the PI3K inhibi ...

The test system of the next assay is ERK in GH3 cells. The note with it: cited from earlier work. From the text: (§1) In primary pituitary cells, PRL production induced by PACAP via functional coupling of cAMP/PKA−, Ca^2+/CaM−, and MAPK-dependent cascades. At the transcription level, cAMP/PKA and Ca^2+/CaM/CaM-II pathways are consistently involved in the PACAP regulation on PRL promoter activity. In mammalian cell models, e.g., in human SH-SY5Y neuroblastoma cells, functional coupling of MAPK (e.g., Erk1/2 and P38^MAPK) with cAMP-dependent mechanism has been reported. […] However, in our studies with αT3-1 cells, the inhibitors f ...

In another assay the test system is ERK in αT3–1 cells. The note with it: cited from earlier work.
From the text: as §1

Assay [3] deals with cAMP production in αT3-1 cells. To be noted: via PAC1 receptors; cited from earlier work.
Assay [4] has as its system pCREB in grass carp pituitary cells. Briefly: Western blot of pCREB in primary grass carp pituitary cells. To be noted: oPACAP38, 24 hrs. (In western blotting, separated proteins are transferred to a membrane and probed.)

“pituitary adenylate cyclase-activating peptide [PACAP]”: the “PACAP-stimulated promoter activity upon mutagenesis and truncation of AP-1 site” value in assay [1] (AP-1 site −136 to −130, pPRL(−166).Luc) is recorded as “significantly suppressed”. Also, in assay [1] (C/EBPalpha site −226 to −217, pPRL(−306).Luc), the “PACAP-stimulated promoter activity upon mutagenesis and truncation of C/EBPalpha site” value was “significantly suppressed”. Further, the MAPK activation result in assay [2] is listed as “activate MAPK”. The values for the ERK activation entry with ERK in GH3 cells and in the assay on ERK in αT3–1 cells were “triggered ERK activation” and “stimulates ERK activation”, respectively. Moreover, the cAMP production entry in assay [3] is on record as “induced”. The CREB phosphorylation result in assay [4] is listed as “significantly enhanced CREB phosphorylation”.
